# Marks after values point to notes of the source that are not given here.
# Test system: Loblolly pine (Pinus taeda) pre-cotyledonary somatic embryos
# Test: Abscisic acid pulse during development of Loblolly pine somatic embryos
# Type: cell-based
# Protocol: Development: Pre-cotyledonary somatic embryos were transferred from maintenance medium into solid development medium BM3 containing 25 mg/L abscisic acid for four weeks to yield treated pre-cotyledonary somatic embryos. The development medium either lacks growth hormones entirely, or has them present only at very low levels. The further inclusion of an adsorbent composition in this medium is advantageous. The adsorbent composition is normally present at a concentration of about 0.1-5 g/L, more generally about 0.25-2.5 g/L. Gelrite was included at a concentration of about 0.25%.
# After culturing pre-cotyledonary embryos on solid development medium containing 25 mg/L abscisic acid for 4 weeks, the abscisic acid-treated pre-cotyledonary embryos were transferred on a filter paper support to solid development medium without abscisic acid. The solid development medium without abscisic acid had the same composition as development medium BM3. Development is preferably carried out in complete darkness at a temperature of 22°-25 C until elongated cotyledonary embryos have developed. Development time is typically several weeks, such as 10 to 12 weeks.
# Female gametophytes containing zygotic embryos were removed from seeds of genotypes A, B and C, as described in EXAMPLE 1, above. The induction and maintenance stages were as described in EXAMPLE 1.
# To test the effect of a pulse of abscisic acid, pre-cotyledonary embryos were transferred to a filter paper support placed on solid development medium BM3 containing abscisic acid. Six different treatments were tested. The concentration of abscisic acid, and the time period during which the pre-cotyledonary embryos were exposed to the abscisic acid during each treatment, are shown in Table 3.
# As a control, pre-cotyledonary embryos were maintained in development medium BM3 containing 25 mg/L abscisic acid for twelve weeks. After twelve weeks, both control and experimental embryos were taken through the standard post-development treatments as described in EXAMPLE 1. Germination was assessed after twelve weeks on germination media in the light at room temperature.
structure (smiles),measurement,setting,value
"CC1=CC(=O)CC(C)(C)[C@@]1(O)/C=C/C(C)=C\C(=O)O [Abscisic Acid, abscisic acid]",Mean Dry Weight,"All genotypes combined, Control: 25 mg/L abscisic acid weeks 1-12",0.37 mg/emb
same,Mean Dry Weight,"All genotypes combined, Treatment 1: 25 mg/L weeks 1-3, 0 weeks 4-12",0.49* mg/emb
same,Mean Dry Weight,"All genotypes combined, Treatment 2: 25 mg/L weeks 1-5, 0 weeks 6-12",0.47* mg/emb
same,Mean Dry Weight,"All genotypes combined, Treatment 3: 25 mg/L weeks 1-7, 0 weeks 8-12",0.47* mg/emb
same,Mean Dry Weight,"All genotypes combined, Treatment 4: 25 mg/L weeks 1-9, 0 weeks 10-12",0.48* mg/emb
same,Mean Dry Weight,"All genotypes combined, Treatment 5: 25 mg/L weeks 1-3, 15 weeks 4-5, 10 weeks 6-7, 5 weeks 8-9, 0 weeks 10-12",0.50* mg/emb
same,Mean Dry Weight,"All genotypes combined, Treatment 6: 25 mg/L weeks 1-5, 15 weeks 6-7, 10 weeks 8-9, 0 weeks 10-12",0.48* mg/emb
same,Embryo morphology at the end of development,both control (continuous abscisic acid) and experimental (pulse) embryos,"good morphological form, good cotyledon development, and normal color"
same,Mean Dry Weight,"genotype A, Control: 25 mg/L abscisic acid weeks 1-12",0.27 mg/emb
same,Mean Dry Weight,"genotype A, Treatment 1: 25 mg/L weeks 1-3, 0 weeks 4-12",0.38* mg/emb
same,Mean Dry Weight,"genotype A, Treatment 2: 25 mg/L weeks 1-5, 0 weeks 6-12",0.36* mg/emb
same,Mean Dry Weight,"genotype A, Treatment 3: 25 mg/L weeks 1-7, 0 weeks 8-12",0.34 mg/emb
same,Mean Dry Weight,"genotype A, Treatment 4: 25 mg/L weeks 1-9, 0 weeks 10-12",0.32 mg/emb
same,Mean Dry Weight,"genotype A, Treatment 5: 25 mg/L weeks 1-3, 15 weeks 4-5, 10 weeks 6-7, 5 weeks 8-9, 0 weeks 10-12",0.36* mg/emb
same,Mean Dry Weight,"genotype A, Treatment 6: 25 mg/L weeks 1-5, 15 weeks 6-7, 10 weeks 8-9, 0 weeks 10-12",0.33 mg/emb
same,Mean Dry Weight,"genotype B, Control: 25 mg/L abscisic acid weeks 1-12",0.31 mg/emb
same,Mean Dry Weight,"genotype B, Treatment 1: 25 mg/L weeks 1-3, 0 weeks 4-12",0.32 mg/emb
same,Mean Dry Weight,"genotype B, Treatment 2: 25 mg/L weeks 1-5, 0 weeks 6-12",0.31 mg/emb
same,Mean Dry Weight,"genotype B, Treatment 3: 25 mg/L weeks 1-7, 0 weeks 8-12",0.37 mg/emb
same,Mean Dry Weight,"genotype B, Treatment 4: 25 mg/L weeks 1-9, 0 weeks 10-12",0.37 mg/emb
same,Mean Dry Weight,"genotype B, Treatment 5: 25 mg/L weeks 1-3, 15 weeks 4-5, 10 weeks 6-7, 5 weeks 8-9, 0 weeks 10-12",0.36 mg/emb
same,Mean Dry Weight,"genotype B, Treatment 6: 25 mg/L weeks 1-5, 15 weeks 6-7, 10 weeks 8-9, 0 weeks 10-12",0.36 mg/emb
same,Mean Dry Weight,"genotype C, Control: 25 mg/L abscisic acid weeks 1-12",0.55 mg/emb
same,Mean Dry Weight,"genotype C, Treatment 1: 25 mg/L weeks 1-3, 0 weeks 4-12",0.79* mg/emb
same,Mean Dry Weight,"genotype C, Treatment 2: 25 mg/L weeks 1-5, 0 weeks 6-12",0.80* mg/emb
same,Mean Dry Weight,"genotype C, Treatment 3: 25 mg/L weeks 1-7, 0 weeks 8-12",0.69 mg/emb
same,Mean Dry Weight,"genotype C, Treatment 4: 25 mg/L weeks 1-9, 0 weeks 10-12",0.76* mg/emb
same,Mean Dry Weight,"genotype C, Treatment 5: 25 mg/L weeks 1-3, 15 weeks 4-5, 10 weeks 6-7, 5 weeks 8-9, 0 weeks 10-12",0.90* mg/emb
same,Mean Dry Weight,"genotype C, Treatment 6: 25 mg/L weeks 1-5, 15 weeks 6-7, 10 weeks 8-9, 0 weeks 10-12",0.84* mg/emb
same,Dry weight of embryos receiving the abscisic acid pulse versus control embryos,pulse treatments versus control with 25 mg/L abscisic acid for twelve weeks,higher dry weight than the control embryos
